Assay results: PMC12338828, “Evaluation of organotin (IV) dithiocarbamate compounds as potential anti-leukemia agents towards CCRF-CEM (CCL-119) cell line: Cytotoxic, apoptotic, cell cycle and genotoxic study” (PLOS One, 2025)
Where “and” joins values, the source holds several entries; their conditions need not be identical. Equal entries are not always repeated.

Legend:
in vitro = conditions: human
Description: (§1) The T-acute lymphoblastic leukemia cell line, CCRF-CEM (CCL-119™), and a non-cancerous cell, WIL2-NS (CRL-8155™), were purchased from the American Type Culture Collection (ATCC). Both are suspension types of cells and were cultured in Roswell Park Memorial Institute Medium 1640 (RPMI-1640) (Sigma-Aldrich), supplemented with 10% Fetal Bovine Serum (FBS) (Capricorn Scientific) and 1% penicillin-streptomycin (Nacalai Tesque) to obtain the complete growth medium and were incubated at 37 °C with a 5% CO2 incubator. Both suspension cells are used for tests when the cells’ passage becomes passage 3–10 (maximum).
(§2) All stock solutions of the organotin (IV) dithiocarbamate compounds were prepared at 10 mM and dissolved in dimethyl sulphoxide (DMSO) (ChemAR®). The stock solutions were stored at 4°C; fresh dilutions were made by adding the RPMI-1640 medium before the experiment. The dilution is carried out using the serial dilution method to obtain the desired concentrations, which are 5 µM, 2.5 µM, 1.25 µM, 0.63 µM, 0.32 µM, and 0.16 µM in this study. Vincristine (VCR) is used as a positive control in this study.
(§3) Both CCL-119 and WIL2-NS cells were seeded in a 96-well plate at a final concentration of 5 x 10^5 cells/well and treated with 5 µM, 2.5 µM, 1.25 µM, 0.63 µM, 0.32 µM, and 0.16 µM of organotin (IV) dithiocarbamate compound for 24 hours at 37°C with 5% CO2. VCR was used as a positive control in this study, while cells without treatment were used as a negative control. After 24 hours of exposure, 20 µL of MTT (Merck) salt solution was added into each well and incubated for another 4 hours. The plate was wrapped with aluminium foil as MTT salt is light sensitive. After 4 hours, the purple crystal formazan was formed. All the medium was removed carefully from each well, and 200 µL DMSO was added to each well to dissolve the purple formazan crystal. Then, the plates were incubated for an additional 15 minutes. The results were analyzed and recorded using an ELISA microplate reader at 570 nm. The data was then plotted into a graph, and IC50 values were determined.
(§4) The selectivity index (SI) is determined by dividing the cytotoxic activity (IC50 value) of each compound on a non-cancerous cell line (WIL2-NS) by the leukemia cell line (CCL-119). […] WIL2- NS cell lines were selected as the comparator because it is a non-cancerous human B lymphoblast cell line, which is like CCL-119 (T-lymphoblastic leukemia), derived from lymphocytes. This choice ensures that comparisons are made between biologically similar cell types, minimizing variability that could arise from differences in tissue origin or lineage.

CCL-119 cells [1] = assay: MTT cytotoxicity assay; conditions: for Selectivity Index (SI): IC50 WIL2-NS / IC50 CCL-119, 24 hours
Description: as §1, §2, §3, §4

[2] = Mode of cell death, Annexin V-FITC/PI staining (flow cytometry); format: cell-based; conditions: human, Viable (Q3)
Description: (§5) The mode of cell death can be observed through the Annexin V-FITC/PI staining (BD, USA). The result of this test is either apoptosis or necrosis. […] VCR was used as a positive control, while cells without any treatment were used as a negative control. Then, the plate was incubated for 24 hours. After the incubation, the cell suspension in each well was collected into different Eppendorf tubes. The tubes were then centrifuged for 5 minutes at 1500 rpm at 4°C. After the centrifuge, the supernatant in the tubes was removed, and the cell pellets were washed twice with cold PBS. Then, centrifuge the tubes again and remove the supernatant. Next, 100 µL of Annexin V binding buffer was resuspended in each tube, and 5 µL Annexin V-FITC was pipetted into the tube to stain the cells for 15 minutes at room temperature, dark. After that, 5 µL of propidium iodide was piped into the tube for 5 minutes. The staining process is done in dark conditions. Lastly, the sample was transferred into the Falcon tube, and each tube was resuspended in 400 µL of Annexin V binding buffer. The sample was analyzed using a flow cytometer (BD FACS Canto II) within one hour.

CCL-119 cells [3] = assay: as above; format: cell-based
Description: as §5

CCL-119 cells [4] = assay: Cell cycle analysis (PI/RNase staining); format: cell-based; conditions: 24 hours at IC50; single replicates n1-n3
Description: The cells were cultured and seeded in a 6-well plate at 1 x 10^6 cells/mL. VCR was used as a positive control, and untreated cells were used as a negative control in this assay. The concentration of the compounds and VCR was followed by IC50 values that were taken from the MTT assay.
After 24 hours of incubation, all cells in the plate were transferred to the Eppendorf tube and centrifuged for 5 minutes at 4°C at 1500 rpm. After centrifuging, the supernatant was removed, and cells were washed with 500 µL cold PBS three times. The pellet was fixed by using 70% ethanol overnight at −20°C. Next, the samples were stained with 500 µL of PI/RNase staining buffer and incubated for 15 minutes. The samples were then transferred into Falcon tubes. The data was recorded using a flow cytometer and analyzed using ModFit LT software.

CCL-119 cells [5] = assay: Alkaline comet assay; format: cell-based; conditions: 1 hour of exposure
Description: VCR was used as a positive control, and untreated cells were used as a negative control in this assay. The cells were incubated for 1 hour. After incubation, cells in each well were transferred to the Eppendorf tube to centrifuge for 5 minutes at 4°C by using a refrigerated microcentrifuge. The supernatant was removed, and the samples were washed with 1 mL of cold PBS. This process was repeated 3 times. After completion of the process, the supernatant was removed, and the pellet was left for a while on top of the ice while preparing the slide.
About 140 µL of normal melting agar (NMA) is pipetted on top of the fully frosted slide, and a cover slip is put on the agar for 5 minutes or until the agar fully solidifies. After that, the cover slip was removed, and 80 µL of low melting agar (LMA) was added to an Eppendorf tube containing the pellet of cells. The suspension was then transferred into a frosted slide with NMA agar. The cover slip was then put back on top of the frosted slide for 10 minutes or until dry. Next, the slide was transferred into a Coplin jar that contained lysis buffer solution and Triton X-100. The slides were then incubated at 4°C overnight. The slides were arranged on an electrophoresis tank filled with electrophoresis buffer for 20 minutes. Electrophoresis is done for another 20 minutes at 25 V with 300 mA. The slides were washed with a neutralization buffer solution 3 times at a 5-minute time interval. Finally, 30 µL of ethidium bromide (50 µg/mL) was added, and the slide was observed by using fluorescence microscopy (OLYMPUS BX51TR). CometScore software is used to analyze the DNA damage of the cells. The comet assay was performed under alkaline conditions (pH > 13) to detect both single- and double-strand DNA breaks.

WIL2-NS cells = system: WIL2-NS cells; parameters: method as in Rasli et al. (2023); conditions: non-cancerous cells; 24 hours of exposure; graph referred to earlier paper; ref Rasli et al. (2023); cited from earlier work
Jurkat E6.1 cells = system: Jurkat E6.1 cells; parameters: method as in Awang et al. (2015) [26]; conditions: ref Awang et al. (2015) [26]; cited from earlier work
[6] = 24 hours at IC50, single replicates n1-n3

Compound | viability at 24 h, 0.63 µM (in vitro; cell viability at 0.63 µM) | viability at 24 h, 1.25 µM (in vitro; cell viability at 1.25 µM) | viability at 24 h, 5 µM (in vitro; cell viability at 5.00 µM) | IC50 (CCL-119 cells [1]; 24 h, read-out: IC50 (µM) CCL-119) | Selectivity Index (SI) (CCL-119 cells [1]) | Selectivity Index (SI) (CCL-119 cells [1]; listed as Vincristine (VCR)) | viability at 24 h [2] | Early Apoptosis (Q4) (CCL-119 cells [3]; [6]) | Late Apoptosis (Q2) (CCL-119 cells [3]; [6]) | Necrosis (Q1) (CCL-119 cells [3]; [6]) | cell death through apoptosis (population of cells) (CCL-119 cells [3]; 24 hours, treated at IC50, early + late apoptosis) | cells in G0/G1 phase (CCL-119 cells [4]) | cells in G2/M phase (CCL-119 cells [4]) | cells in S phase (CCL-119 cells [4]) | Tail moment (CCL-119 cells [5]; mean ± SEM) | percentage of DNA intensity in the tail (CCL-119 cells [5]; mean ± SEM) | % DNA intensity (CCL-119 cells [5]; single replicates n1-n3) | Tail moment (CCL-119 cells [5]; single replicates n1-n3) | IC50 (WIL2-NS cells) | mode of cell death in Jurkat E6.1 cells (Jurkat E6.1 cells)
CC[C@]1(O)C[C@H]2CN(CCc3c([nH]c4ccccc34)[C@@](C(=O)OC)(c3cc4c(cc3OC)N(C=O)[C@H]3[C@@](O)(C(=O)OC)[C@H](OC(C)=O)[C@]5(CC)C=CCN6CC[C@]43[C@@H]65)C2)C1 [VCR, Vincristine, reference compound] | 50.6% | 46.3% | 41.6% | 1.82 ± 1.53 µM | below 2 | 1.59 | 44.4% | 39.2% and 38.7% and 37.4% | 19% and 17.2% and 17.9% | 0.45% and 0.54% and 0.51% | 56.46% | 36.70% and 30.32% and 29.02% | 5.35% and 8.00% and 3.69% | 57.95% and 61.68% and 67.28% | 4.17 ± 0.74 A.U | 8.48 ± 1.09% | 6.493% and 8.677% and 10.2647% | 2.837 A.U and 4.286 A.U and 5.38 A.U | 2.89 ± 0.03 µM | –
CCCCN(C(=S)[S][Sn]([c]1ccccc1)([c]1ccccc1)[c]1ccccc1)c1ccccc1 [triphenyltin (IV) butylphenyl dithiocarbamate] | – | – | – | – | – | – | – | – | – | – | – | – | – | – | – | – | – | – | – | predominant induction of early-phase apoptotic cell death
